# Columns and labels:
# Experiment in all cases: radiometric filter-binding kinase assay, Kinase HotSpot
# Conditions in all cases: compound 0.5 µM; ATP 10 µM
# CAMK4 (human) = CAMK4 (human) (UniProt Q16566)
# PRKG2 (human) = PRKG2 (human) (UniProt Q13237)
# PAK2 (human) = PAK2 (human) (UniProt Q13177)
# DAPK3 (human) = DAPK3 (human) (UniProt O43293)
# INSRR (human) = INSRR (human) (UniProt P14616)
# TEC (human) = TEC (human) (UniProt P42680)
# YES1 (human) = YES1 (human) (UniProt P07947)
# GRK5 (human) = GRK5 (human) (UniProt P34947)
# TSSK2 (human) = TSSK2 (human) (UniProt Q96PF2)
# SRPK1 (human) = SRPK1 (human) (UniProt Q96SB4)
# [1] = biological target: TYK2 JH1 catalytic (human) (UniProt P29597)
# MAP3K9 (human) = MAP3K9 (human) (UniProt P80192)
# EPHB4 (human) = EPHB4 (human) (UniProt P54760)
# AURKA (human) = AURKA (human) (UniProt O14965)
# AURKA (human), sequence (O14965 whole entry, looked up): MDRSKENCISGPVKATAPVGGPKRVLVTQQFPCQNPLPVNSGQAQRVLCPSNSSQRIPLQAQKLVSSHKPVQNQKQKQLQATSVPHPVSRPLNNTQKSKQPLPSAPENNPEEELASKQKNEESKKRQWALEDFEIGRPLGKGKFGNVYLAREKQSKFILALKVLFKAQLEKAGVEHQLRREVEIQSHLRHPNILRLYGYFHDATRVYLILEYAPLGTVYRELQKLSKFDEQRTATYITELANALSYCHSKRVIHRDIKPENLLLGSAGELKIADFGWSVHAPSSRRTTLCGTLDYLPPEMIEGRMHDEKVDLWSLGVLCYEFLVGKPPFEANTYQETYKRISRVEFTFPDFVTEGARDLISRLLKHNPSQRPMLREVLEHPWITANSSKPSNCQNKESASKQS
# [2] = biological target: JAK1 JH1 catalytic (human) (UniProt P23458)
# MAP2K2 (human) = MAP2K2 (human) (UniProt P36507)
# RPS6KA5 KD2 (human) = RPS6KA5 KD2 (human) (UniProt O75582)
# PDGFRA (human) = PDGFRA (human) (UniProt P16234)
# GSG2 (human) = GSG2 (human) (UniProt Q8TF76)
# MAPK11 (human) = MAPK11 (human) (UniProt Q15759)
# ITK (human) = ITK (human) (UniProt Q08881)
# CDK5 CDK5R1 p35 (human) = CDK5 CDK5R1 p35 (human) (UniProt Q00535+Q15078)
# CHUK (human) = CHUK (human) (UniProt O15111)
# MAPK1 (human) = MAPK1 (human) (UniProt P28482)
# NEK6 (human) = NEK6 (human) (UniProt Q9HC98)
# MATK (human) = MATK (human) (UniProt P42679)
# MATK (human), sequence (P42679 whole entry, looked up): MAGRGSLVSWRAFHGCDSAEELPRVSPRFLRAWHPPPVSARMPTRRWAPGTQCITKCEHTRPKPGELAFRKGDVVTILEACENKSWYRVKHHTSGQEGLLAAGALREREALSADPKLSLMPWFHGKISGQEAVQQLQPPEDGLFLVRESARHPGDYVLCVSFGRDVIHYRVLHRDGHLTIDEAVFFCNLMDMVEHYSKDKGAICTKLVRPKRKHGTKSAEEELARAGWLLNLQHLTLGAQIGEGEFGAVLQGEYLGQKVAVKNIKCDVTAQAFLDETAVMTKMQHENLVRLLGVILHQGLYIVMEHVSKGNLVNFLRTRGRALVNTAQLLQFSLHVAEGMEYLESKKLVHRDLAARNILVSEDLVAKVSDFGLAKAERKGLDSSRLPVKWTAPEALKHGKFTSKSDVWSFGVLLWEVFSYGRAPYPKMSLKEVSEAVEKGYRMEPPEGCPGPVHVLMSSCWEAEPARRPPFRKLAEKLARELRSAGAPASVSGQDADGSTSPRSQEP
# HIPK1 (human) = HIPK1 (human) (UniProt Q86Z02)
# PKN1 (human) = PKN1 (human) (UniProt Q16512)
# VRK1 (human) = VRK1 (human) (UniProt Q99986)
# TNK2 (human) = TNK2 (human) (UniProt Q07912)
# SIK2 (human) = SIK2 (human) (UniProt Q9H0K1)
# WEE1 (human) = WEE1 (human) (UniProt P30291)
# NEK3 (human) = NEK3 (human) (UniProt P51956)
# BTK (human) = BTK (human) (UniProt Q06187)
# PRKCE (human) = PRKCE (human) (UniProt Q02156)
# PRKCE (human), sequence (Q02156 whole entry, looked up): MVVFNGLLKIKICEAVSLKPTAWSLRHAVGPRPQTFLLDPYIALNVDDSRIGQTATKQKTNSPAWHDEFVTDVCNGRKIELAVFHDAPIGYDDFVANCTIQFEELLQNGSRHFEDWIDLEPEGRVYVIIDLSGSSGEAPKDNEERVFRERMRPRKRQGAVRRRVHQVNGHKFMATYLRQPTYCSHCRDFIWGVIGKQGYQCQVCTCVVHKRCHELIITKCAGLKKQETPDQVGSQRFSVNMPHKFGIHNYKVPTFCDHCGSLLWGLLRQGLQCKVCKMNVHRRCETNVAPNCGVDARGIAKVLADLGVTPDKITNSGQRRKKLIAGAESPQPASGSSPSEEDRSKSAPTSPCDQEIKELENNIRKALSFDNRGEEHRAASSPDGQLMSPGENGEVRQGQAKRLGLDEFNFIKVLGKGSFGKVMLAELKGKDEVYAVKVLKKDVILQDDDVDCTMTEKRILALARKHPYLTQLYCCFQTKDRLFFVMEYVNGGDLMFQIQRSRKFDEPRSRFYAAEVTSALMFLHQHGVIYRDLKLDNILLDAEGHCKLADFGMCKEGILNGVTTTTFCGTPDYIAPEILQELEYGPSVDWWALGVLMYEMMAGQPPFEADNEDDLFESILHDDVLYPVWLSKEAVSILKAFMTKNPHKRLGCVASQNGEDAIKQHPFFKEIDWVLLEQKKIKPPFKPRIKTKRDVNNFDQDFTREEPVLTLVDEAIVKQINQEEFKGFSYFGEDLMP
# MAPKAPK5 (human) = MAPKAPK5 (human) (UniProt Q8IW41)
# PDGFRB (human) = PDGFRB (human) (UniProt P09619)
# NEK9 (human) = NEK9 (human) (UniProt Q8TD19)
# NEK9 (human), sequence (Q8TD19 whole entry, looked up): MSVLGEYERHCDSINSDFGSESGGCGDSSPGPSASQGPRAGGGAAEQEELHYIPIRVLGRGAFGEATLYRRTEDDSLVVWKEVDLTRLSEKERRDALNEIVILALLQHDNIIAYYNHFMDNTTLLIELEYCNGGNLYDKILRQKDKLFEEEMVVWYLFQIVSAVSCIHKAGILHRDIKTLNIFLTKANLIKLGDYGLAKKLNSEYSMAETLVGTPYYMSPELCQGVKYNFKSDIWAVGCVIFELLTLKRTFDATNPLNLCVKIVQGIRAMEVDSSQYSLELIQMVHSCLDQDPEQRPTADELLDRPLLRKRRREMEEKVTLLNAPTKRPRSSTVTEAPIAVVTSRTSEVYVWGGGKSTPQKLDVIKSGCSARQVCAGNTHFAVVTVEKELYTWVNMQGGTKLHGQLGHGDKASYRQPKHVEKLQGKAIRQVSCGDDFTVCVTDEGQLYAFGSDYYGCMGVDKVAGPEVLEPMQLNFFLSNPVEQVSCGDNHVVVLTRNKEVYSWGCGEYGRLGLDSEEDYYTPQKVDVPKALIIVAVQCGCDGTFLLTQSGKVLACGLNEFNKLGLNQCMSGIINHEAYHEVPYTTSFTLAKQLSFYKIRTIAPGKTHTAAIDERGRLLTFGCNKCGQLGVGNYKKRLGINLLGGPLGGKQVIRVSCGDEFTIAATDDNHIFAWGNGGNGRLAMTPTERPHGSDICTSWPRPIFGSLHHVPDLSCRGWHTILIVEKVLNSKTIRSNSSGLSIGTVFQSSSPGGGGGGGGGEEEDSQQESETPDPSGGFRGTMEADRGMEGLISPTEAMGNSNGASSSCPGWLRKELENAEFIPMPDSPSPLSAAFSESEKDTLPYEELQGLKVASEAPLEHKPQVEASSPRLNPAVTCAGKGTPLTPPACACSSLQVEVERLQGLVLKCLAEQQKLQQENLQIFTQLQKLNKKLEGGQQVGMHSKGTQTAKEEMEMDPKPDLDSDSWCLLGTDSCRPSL
# CSK (human) = CSK (human) (UniProt P41240)
# CSK (human), sequence (P41240 whole entry, looked up): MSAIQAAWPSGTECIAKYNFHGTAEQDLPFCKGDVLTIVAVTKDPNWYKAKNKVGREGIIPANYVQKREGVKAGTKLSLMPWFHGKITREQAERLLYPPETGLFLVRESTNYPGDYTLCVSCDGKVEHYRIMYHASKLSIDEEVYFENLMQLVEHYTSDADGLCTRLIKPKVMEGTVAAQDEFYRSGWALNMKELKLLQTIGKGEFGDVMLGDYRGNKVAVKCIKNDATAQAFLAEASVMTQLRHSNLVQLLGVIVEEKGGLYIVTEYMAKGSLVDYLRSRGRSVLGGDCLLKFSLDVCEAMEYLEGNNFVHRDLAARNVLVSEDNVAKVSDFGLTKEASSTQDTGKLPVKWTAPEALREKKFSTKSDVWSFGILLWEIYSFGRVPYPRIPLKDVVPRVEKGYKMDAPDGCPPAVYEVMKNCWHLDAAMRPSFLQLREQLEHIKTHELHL
# NEK4 (human) = NEK4 (human) (UniProt P51957)
# NEK11 (human) = NEK11 (human) (UniProt Q8NG66)
# NEK11 (human), sequence (Q8NG66 whole entry, looked up): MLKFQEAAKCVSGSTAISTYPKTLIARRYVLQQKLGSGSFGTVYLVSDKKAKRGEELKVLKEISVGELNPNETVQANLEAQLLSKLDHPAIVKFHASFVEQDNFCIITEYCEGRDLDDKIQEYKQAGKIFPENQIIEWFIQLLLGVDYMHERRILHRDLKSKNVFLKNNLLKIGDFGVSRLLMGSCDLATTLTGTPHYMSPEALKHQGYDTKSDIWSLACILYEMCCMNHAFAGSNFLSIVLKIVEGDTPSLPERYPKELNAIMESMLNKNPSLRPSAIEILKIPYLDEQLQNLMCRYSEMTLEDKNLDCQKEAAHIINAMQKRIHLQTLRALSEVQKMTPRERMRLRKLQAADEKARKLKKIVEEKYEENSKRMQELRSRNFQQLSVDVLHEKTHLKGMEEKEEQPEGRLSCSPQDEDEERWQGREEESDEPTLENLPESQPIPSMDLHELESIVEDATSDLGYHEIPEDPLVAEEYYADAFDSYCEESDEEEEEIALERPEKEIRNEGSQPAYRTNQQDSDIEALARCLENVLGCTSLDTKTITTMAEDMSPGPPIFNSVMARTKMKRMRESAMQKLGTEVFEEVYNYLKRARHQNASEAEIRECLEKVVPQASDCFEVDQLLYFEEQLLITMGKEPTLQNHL
# ADRBK2 (human) = ADRBK2 (human) (UniProt P35626)
# ADRBK2 (human), sequence (P35626 whole entry, looked up): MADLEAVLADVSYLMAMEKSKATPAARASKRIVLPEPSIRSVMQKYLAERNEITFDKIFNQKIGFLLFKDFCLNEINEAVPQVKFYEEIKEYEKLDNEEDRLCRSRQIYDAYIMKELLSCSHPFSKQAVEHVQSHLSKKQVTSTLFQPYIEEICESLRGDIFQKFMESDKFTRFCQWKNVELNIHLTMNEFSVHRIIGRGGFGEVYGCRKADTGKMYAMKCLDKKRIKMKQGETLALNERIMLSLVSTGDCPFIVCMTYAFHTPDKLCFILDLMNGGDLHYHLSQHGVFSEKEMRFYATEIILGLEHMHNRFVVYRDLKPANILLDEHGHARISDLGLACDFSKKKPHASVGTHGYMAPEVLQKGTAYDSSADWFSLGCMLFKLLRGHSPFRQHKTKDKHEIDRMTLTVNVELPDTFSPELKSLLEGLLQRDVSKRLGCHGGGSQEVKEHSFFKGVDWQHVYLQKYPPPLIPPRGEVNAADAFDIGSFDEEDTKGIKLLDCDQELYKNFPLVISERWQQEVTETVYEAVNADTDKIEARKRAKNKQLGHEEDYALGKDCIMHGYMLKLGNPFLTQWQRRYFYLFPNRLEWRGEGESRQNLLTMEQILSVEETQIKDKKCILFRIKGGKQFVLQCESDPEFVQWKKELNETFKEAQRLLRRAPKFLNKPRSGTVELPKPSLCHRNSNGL
# CAMK4 (human), sequence (Q16566 whole entry, looked up): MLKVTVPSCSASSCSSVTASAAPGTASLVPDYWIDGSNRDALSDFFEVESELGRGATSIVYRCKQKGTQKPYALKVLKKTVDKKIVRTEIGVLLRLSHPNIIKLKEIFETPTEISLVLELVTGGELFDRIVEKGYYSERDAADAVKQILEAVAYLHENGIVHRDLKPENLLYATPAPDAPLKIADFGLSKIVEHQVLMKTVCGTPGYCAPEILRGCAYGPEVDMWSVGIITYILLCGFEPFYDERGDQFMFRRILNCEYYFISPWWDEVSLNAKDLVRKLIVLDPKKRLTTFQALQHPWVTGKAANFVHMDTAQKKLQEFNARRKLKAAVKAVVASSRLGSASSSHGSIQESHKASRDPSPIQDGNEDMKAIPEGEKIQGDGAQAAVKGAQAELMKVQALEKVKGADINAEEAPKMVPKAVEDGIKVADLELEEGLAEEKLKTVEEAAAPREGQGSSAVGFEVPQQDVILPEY
smiles,measurement,setting,value
Oc1ccc(Nc2nc(-c3ccc(Cl)cc3)cs2)cc1,residual activity,CAMK4 (human),99.7%
same,residual activity,PRKG2 (human),92.9%
same,residual activity,PAK2 (human),87%
same,residual activity,DAPK3 (human),103%
same,residual activity,INSRR (human),98.8%
same,residual activity,TEC (human),120%
same,residual activity,YES1 (human),99.2%
same,residual activity,GRK5 (human),92%
same,residual activity,TSSK2 (human),102%
same,residual activity,SRPK1 (human),103%
same,residual activity,[1],110%
same,residual activity,MAP3K9 (human),80.9%
same,residual activity,EPHB4 (human),89.6%
same,residual activity,AURKA (human),89.4%
same,residual activity,[2],97.1%
same,residual activity,MAP2K2 (human),109%
same,residual activity,RPS6KA5 KD2 (human),109%
same,residual activity,PDGFRA (human),101%
same,residual activity,GSG2 (human),100%
same,residual activity,MAPK11 (human),105%
same,residual activity,ITK (human),95.4%
same,residual activity,CDK5 CDK5R1 p35 (human),104%
same,residual activity,CHUK (human),104%
same,residual activity,MAPK1 (human),106%
same,residual activity,NEK6 (human),95.2%
same,residual activity,MATK (human),95.6%
same,residual activity,HIPK1 (human),100%
same,residual activity,PKN1 (human),99.5%
same,residual activity,VRK1 (human),99.8%
same,residual activity,TNK2 (human),103%
same,residual activity,SIK2 (human),90.7%
same,residual activity,WEE1 (human),93.2%
same,residual activity,NEK3 (human),98.4%
same,residual activity,BTK (human),107%
same,residual activity,PRKCE (human),99.6%
same,residual activity,MAPKAPK5 (human),96.8%
same,residual activity,PDGFRB (human),107%
same,residual activity,NEK9 (human),90.6%
same,residual activity,CSK (human),101%
same,residual activity,NEK4 (human),104%
same,residual activity,NEK11 (human),77.1%
same,residual activity,ADRBK2 (human),97.6%
O=C(O)/C=C/c1cc(Br)c(Br)c(Br)c1Br,residual activity,CAMK4 (human),103%
same,residual activity,PRKG2 (human),80.3%
same,residual activity,PAK2 (human),83.2%
same,residual activity,DAPK3 (human),90.2%
same,residual activity,INSRR (human),88.2%
same,residual activity,TEC (human),107%
same,residual activity,YES1 (human),96.9%
same,residual activity,GRK5 (human),104%
same,residual activity,TSSK2 (human),98.1%
same,residual activity,SRPK1 (human),79.3%
same,residual activity,[1],110%
same,residual activity,MAP3K9 (human),101%
same,residual activity,EPHB4 (human),81.2%
same,residual activity,AURKA (human),77.2%
same,residual activity,[2],98.8%
same,residual activity,MAP2K2 (human),103%
same,residual activity,RPS6KA5 KD2 (human),88.3%
same,residual activity,PDGFRA (human),105%
same,residual activity,GSG2 (human),88.4%
same,residual activity,MAPK11 (human),92.7%
same,residual activity,ITK (human),100%
same,residual activity,CDK5 CDK5R1 p35 (human),92.4%
same,residual activity,CHUK (human),89.5%
same,residual activity,MAPK1 (human),98.5%
same,residual activity,NEK6 (human),102%
same,residual activity,MATK (human),87.2%
same,residual activity,HIPK1 (human),99.6%
same,residual activity,PKN1 (human),85.5%
same,residual activity,VRK1 (human),89.8%
same,residual activity,TNK2 (human),110%
same,residual activity,SIK2 (human),107%
same,residual activity,WEE1 (human),99.1%
same,residual activity,NEK3 (human),83.5%
same,residual activity,BTK (human),97.8%
same,residual activity,PRKCE (human),88.6%
same,residual activity,MAPKAPK5 (human),72.6%
same,residual activity,PDGFRB (human),96%
same,residual activity,NEK9 (human),94.7%
same,residual activity,CSK (human),103%
same,residual activity,NEK4 (human),54.6%
same,residual activity,NEK11 (human),101%
same,residual activity,ADRBK2 (human),94.3%

# — the kinase profiling compilation of Christmann-Franck et al. (2016)
